{
  "source": "patent EP4566614A1",
  "about": "“DRY EYE REMEDY CONTAINING DNA OLIGONUCLEOTIDE […] BINDING TO IFN-y” (TAGCyx Biotechnologies Inc., priority 2022, dated 2024)",
  "molecular_target": "T1, IFN-y (Homo sapiens, UniProt P01579)",
  "T1 sequence (P01579 24-166)": "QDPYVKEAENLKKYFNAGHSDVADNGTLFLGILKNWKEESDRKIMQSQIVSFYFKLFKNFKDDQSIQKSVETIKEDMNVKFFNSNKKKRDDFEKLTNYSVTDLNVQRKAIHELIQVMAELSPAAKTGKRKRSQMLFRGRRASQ",
  "assay": "Binding of PEG-modified form to IFN-y by SPR (Surface Plasmon Resonance)",
  "settings": "PEG (40000) on base X",
  "source_text": "With the base of X produced in Example 2, Aptamer 3 (1 eq) having a primary amine side chain and commercially available NHS-PEG (40000) (1.5 eq) were mixed in a phosphate buffer at pH 7 to 8 and the mixture was stirred for 1 day at room temperature. The reaction solution was concentrated and the resulting modified form was purified by reversed phase HPLC to obtain a PEG-modified form of Aptamer 3.",
  "data": [
    {"substance": "PEG-modified form of Aptamer 3: Aptamer 3 having a primary amine side chain at X reacted with NHS-PEG (40000) (CCCGCCCGGGTCCGCGAAGCGGTAGGTNTGGGCTAGGCNGCTGGCGGGCGCGNAGCG; DNA aptamer, amine side-chain residue X conjugated to 40 kDa PEG, further chemistry not given here)", "values": [
      {"measurement": "ability to bind to IFN-y", "value": "retained its ability to bind to IFN-y"},
      {"measurement": "ability to bind to IFN-y", "setting": "listed as PEG-modified form of a DNA aptamer having the sequence of SEQ ID NO: 3", "value": "capable of binding to IFN-γ"}
    ]}
  ]
}
